From patent US8614327B2 (Vertex Pharmaceuticals Incorporated, priority 2004, dated 2013)

Biological target: T1, ΔF508-CFTR (Homo sapiens, UniProt P13569, DEL508-508)
T1 construct: expressed in transfected cells
Assay: Membrane potential optical (FRET/VIPR) assay, identification of potentiator compounds
Type: cell-based
Settings: Table 3, assay not given; for % Activity: relative efficacy
Text: I) Membrane Potential Optical Methods for Assaying ΔF508-CFTR Modulation Properties of Compounds The optical membrane potential assay utilized voltage-sensitive FRET sensors described by Gonzalez and Tsien (See, Gonzalez, J. E. and R. Y. Tsien (1995) “Voltage sensing by fluorescence resonance energy transfer in single cells” Biophys J 69(4): 1272-80, and Gonzalez, J. E. and R. Y. Tsien (1997) “Improved indicators of cell membrane potential that use fluorescence resonance energy transfer” Chem Biol 4(4): 269-77) in combination with instrumentation for measuring fluorescence changes such as the Voltage/Ion Probe Reader (VIPR) (See, […]. Oades, et al. (1999) “Cell-based assays and instrumentation for screening ion-channel targets” Drug Discov Today 4(9): 431-439). These voltage sensitive assays are based on the change in fluorescence resonant energy transfer (FRET) between the membrane-soluble, voltage-sensitive dye, DiSBAC2(3), and a fluorescent phospholipid, CC2-DMPE, which is attached to the outer leaflet of the plasma membrane and acts as a FRET donor. Changes in membrane potential (Vm) cause the negatively charged DiSBAC2(3) to redistribute across the plasma membrane and the amount of energy transfer from CC2-DMPE changes accordingly. The changes in fluorescence emission were monitored using VIPR which is an integrated liquid handler and fluorescent detector designed to conduct cell-based screens in 96- or 384-well microtiter plates. To identify potentiators of ΔF508-CFTR, a double-addition HTS assay format was developed. During the first addition, a Cl^--free medium with or without test compound was added to each well. […] (in mM) NaCl 160, KCl 4.5, CaCl2 2, MgCl2 1, HEPES 10, pH 7.4 with NaOH. • Chloride-free bath solution: Chloride salts in Bath Solution #1 are substituted with gluconate salts. • CC2-DMPE: Prepared as a 10 mM stock solution in DMSO and stored at -20° C. • DiSBAC2(3): Prepared as a 10 mM stock in DMSO and stored at -20° C. NIH3T3 mouse fibroblasts stably expressing ΔF508-CFTR are used for optical measurements of membrane potential. […] For all optical assays, the cells were seeded at 30,000/well in 384-well matrigel-coated plates and cultured for 2 hrs at 37° C. before culturing at 27° C. for 24 hrs. for the potentiator assay.

T1 sequence (P13569 with tags, fused parts or gaps DEL508-508): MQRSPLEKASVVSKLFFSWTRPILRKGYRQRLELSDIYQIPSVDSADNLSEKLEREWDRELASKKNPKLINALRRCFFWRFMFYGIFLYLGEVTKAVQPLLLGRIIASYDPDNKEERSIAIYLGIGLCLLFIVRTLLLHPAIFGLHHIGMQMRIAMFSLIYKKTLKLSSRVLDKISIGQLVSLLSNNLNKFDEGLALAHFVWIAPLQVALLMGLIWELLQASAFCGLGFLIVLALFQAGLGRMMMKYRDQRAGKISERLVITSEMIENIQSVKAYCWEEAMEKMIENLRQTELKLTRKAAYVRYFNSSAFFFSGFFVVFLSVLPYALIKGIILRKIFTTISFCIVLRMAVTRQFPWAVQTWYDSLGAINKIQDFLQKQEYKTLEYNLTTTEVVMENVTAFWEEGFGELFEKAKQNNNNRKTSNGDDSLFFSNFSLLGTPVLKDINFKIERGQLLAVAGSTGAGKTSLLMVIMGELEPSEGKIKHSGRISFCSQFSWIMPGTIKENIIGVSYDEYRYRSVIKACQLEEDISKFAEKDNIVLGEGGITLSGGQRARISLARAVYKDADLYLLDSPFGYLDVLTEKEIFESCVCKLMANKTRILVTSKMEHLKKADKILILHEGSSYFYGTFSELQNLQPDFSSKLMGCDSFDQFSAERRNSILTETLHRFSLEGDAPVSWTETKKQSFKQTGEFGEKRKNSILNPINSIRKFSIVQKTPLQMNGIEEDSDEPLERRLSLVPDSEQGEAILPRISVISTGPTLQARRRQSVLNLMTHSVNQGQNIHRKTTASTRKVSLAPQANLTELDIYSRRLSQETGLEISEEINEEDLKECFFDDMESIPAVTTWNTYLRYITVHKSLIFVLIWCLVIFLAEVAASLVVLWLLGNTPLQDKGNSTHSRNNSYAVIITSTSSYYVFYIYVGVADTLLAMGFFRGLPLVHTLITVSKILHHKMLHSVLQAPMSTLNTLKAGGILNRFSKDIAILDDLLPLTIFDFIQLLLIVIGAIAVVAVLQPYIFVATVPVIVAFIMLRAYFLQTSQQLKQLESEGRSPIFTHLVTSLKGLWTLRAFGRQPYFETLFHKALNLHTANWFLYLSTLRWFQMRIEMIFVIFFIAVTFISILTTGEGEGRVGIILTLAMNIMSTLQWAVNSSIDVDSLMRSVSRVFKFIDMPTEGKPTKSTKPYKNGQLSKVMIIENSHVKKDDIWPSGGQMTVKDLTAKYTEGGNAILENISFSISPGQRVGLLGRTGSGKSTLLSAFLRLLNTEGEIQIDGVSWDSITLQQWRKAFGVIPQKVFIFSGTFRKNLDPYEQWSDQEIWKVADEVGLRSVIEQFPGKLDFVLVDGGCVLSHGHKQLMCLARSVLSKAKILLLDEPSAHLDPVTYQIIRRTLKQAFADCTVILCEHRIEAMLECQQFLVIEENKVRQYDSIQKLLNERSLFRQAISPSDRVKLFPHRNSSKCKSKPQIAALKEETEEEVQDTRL

SMILES: COc1ccc(Cl)cc1-c1cc2cc[nH]c2cc1NC(=O)c1c[nH]c2ccccc2c1=O [Compound 1, N-[5-(5-chloro-2-methoxy-phenyl)-1H-indol-6-yl]-4-oxo-1H-quinoline-3-carboxamide]
- EC50: < 10 µM
- % Activity: ++ (between 25% to 100%)

SMILES: COc1cc(NC(=O)c2c[nH]c3ccccc3c2=O)ccc1C(C)(C)C [Compound 2, N-(3-methoxy-4-tert-butyl-phenyl)-4-oxo-1H-quinoline-3-carboxamide]
- EC50: < 10 µM
- % Activity: ++ (between 25% to 100%)

SMILES: COc1ccccc1Oc1ccc(C(F)(F)F)cc1NC(=O)c1c[nH]c2ccccc2c1=O [Compound 3, N-[2-(2-methoxyphenoxy)-5-(trifluoromethyl)phenyl]-4-oxo-1H-quinoline-3-carboxamide]
- EC50: < 10 µM
- % Activity: ++ (between 25% to 100%)

SMILES: O=C(Nc1ccccc1N1CCOCC1)c1c[nH]c2ccccc2c1=O [Compound 4, N-(2-morpholinophenyl)-4-oxo-1H-quinoline-3-carboxamide]
- EC50: < 10 µM
- % Activity: ++ (between 25% to 100%)

SMILES: CC(C)(CO)c1ccc(NC(=O)c2c[nH]c3ccccc3c2=O)cc1 [Compound 5, N-[4-(2-hydroxy-1,1-dimethyl-ethyl)phenyl]-4-oxo-1H-quinoline-3-carboxamide]
- EC50: 10 to 25 µM
- % Activity: ++ (between 25% to 100%)

SMILES: CC(C)(C)c1ccc(NC(=O)c2c[nH]c3ccccc3c2=O)cc1CO [Compound 6, N-[3-(hydroxymethyl)-4-tert-butyl-phenyl]-4-oxo-1H-quinoline-3-carboxamide]
- EC50: < 10 µM
- % Activity: +++ (>100%)

SMILES: CCOc1cc(NC(=O)c2c[nH]c3ccccc3c2=O)c(OCC)cc1NC(=O)c1ccccc1 [Compound 7, N-(4-benzoylamino-2,5-diethoxy-phenyl)-4-oxo-1H-quinoline-3-carboxamide]
- EC50: 25 to 60 µM
- % Activity: + (<25%)

SMILES: CCc1ccc(NC(=O)c2c[nH]c3ccccc3c2=O)cc1N [Compound 8, N-(3-amino-4-ethyl-phenyl)-4-oxo-1H-quinoline-3-carboxamide]
- EC50: < 10 µM
- % Activity: ++ (between 25% to 100%)

SMILES: NS(=O)(=O)c1cccc(NC(=O)c2c[nH]c3ccccc3c2=O)c1 [Compound 9, 4-oxo-N-(3-sulfamoylphenyl)-1H-quinoline-3-carboxamide]
- EC50: 25 to 60 µM
- % Activity: + (<25%)

SMILES: O=C(Nc1ccc2c(c1)NCCCC2)c1c[nH]c2ccccc2c1=O [Compound 10, 1,4-dihydro-N-(2,3,4,5-tetrahydro-1H-benzo[b]azepin-8-yl)-4-oxoquinoline-3-carboxamide]
- EC50: < 10 µM
- % Activity: ++ (between 25% to 100%)

SMILES: O=C(Nc1ccccc1-c1ccccc1C(F)(F)F)c1c[nH]c2ccccc2c1=O [Compound 11, 4-oxo-N-[2-[2-(trifluoromethyl)phenyl]phenyl]-1H-quinoline-3-carboxamide]
- EC50: < 10 µM
- % Activity: ++ (between 25% to 100%)

SMILES: CN(C)c1ccc(-c2ccccc2NC(=O)c2c[nH]c3ccccc3c2=O)cc1 [Compound 12, N-[2-(4-dimethylaminophenyl)phenyl]-4-oxo-1H-quinoline-3-carboxamide]
- EC50: < 10 µM
- % Activity: ++ (between 25% to 100%)

SMILES: CC(C)(C)c1ccc(NC(=O)c2c[nH]c3ccccc3c2=O)cc1C#N [Compound 13, N-(3-cyano-4-tert-butyl-phenyl)-4-oxo-1H-quinoline-3-carboxamide]
- EC50: < 10 µM
- % Activity: ++ (between 25% to 100%)

SMILES: COC(=O)Nc1cc(NC(=O)c2c[nH]c3ccccc3c2=O)ccc1C(C)(C)C [Compound 14, [5-[(4-oxo-1H-quinolin-3-yl)carbonylamino]-2-tert-butyl-phenyl]aminoformic acid methyl ester]
- EC50: < 10 µM
- % Activity: ++ (between 25% to 100%)

SMILES: COc1ncccc1NC(=O)c1c[nH]c2ccccc2c1=O [Compound 15, N-(2-methoxy-3-pyridyl)-4-oxo-1H-quinoline-3-carboxamide]
- EC50: 10 to 25 µM
- % Activity: ++ (between 25% to 100%)

SMILES: CCCc1ccccc1NC(=O)c1c[nH]c2ccccc2c1=O [Compound 16, 4-oxo-N-(2-propylphenyl)-1H-quinoline-3-carboxamide]
- EC50: < 10 µM
- % Activity: ++ (between 25% to 100%)

SMILES: CCCOc1ccc(N)cc1NC(=O)c1c[nH]c2ccccc2c1=O [Compound 17, N-(5-Amino-2-propoxy-phenyl)-4-oxo-1H-quinoline-3-carboxamide]
- EC50: < 10 µM
- % Activity: ++ (between 25% to 100%)

SMILES: O=C(Nc1cccc2c1Cc1ccccc1-2)c1c[nH]c2ccccc2c1=O [Compound 18, N-(9H-fluoren-1-yl)-4-oxo-1H-quinoline-3-carboxamide]
- EC50: < 10 µM
- % Activity: ++ (between 25% to 100%)

SMILES: O=C(Nc1ccc2ccccc2n1)c1c[nH]c2ccccc2c1=O [Compound 19, 4-oxo-N-(2-quinolyl)-1H-quinoline-3-carboxamide]
- EC50: 10 to 25 µM
- % Activity: + (<25%)

SMILES: Cc1ccccc1Oc1ccccc1NC(=O)c1c[nH]c2ccccc2c1=O [Compound 20, N-[2-(2-methylphenoxy)phenyl]-4-oxo-1H-quinoline-3-carboxamide]
- EC50: < 10 µM
- % Activity: ++ (between 25% to 100%)

SMILES: O=C(Nc1ccc(S(=O)(=O)Nc2ccccn2)cc1)c1c[nH]c2ccccc2c1=O [Compound 21, 4-oxo-N-[4-(2-pyridylsulfamoyl)phenyl]-1H-quinoline-3-carboxamide]
- EC50: 25 to 60 µM
- % Activity: + (<25%)

SMILES: O=C(Nc1ccc2c(c1)NCC21CC1)c1c[nH]c2ccccc2c1=O [Compound 22, 4-Oxo-1,4-dihydro-quinoline-3-carboxylic acid N-(1′,2′-dihydrospiro[cyclopropane-1,3′-[3H]indol]-6′-yl)-amide]
- EC50: 10 to 25 µM
- % Activity: ++ (between 25% to 100%)

SMILES: CCOc1ccccc1-c1cc(C(C)(C)C)c(O)cc1NC(=O)c1c[nH]c2ccccc2c1=O [Compound 23, N-[2-(2-ethoxyphenyl)-5-hydroxy-4-tert-butyl-phenyl]-4-oxo-1H-quinoline-3-carboxamide]
- EC50: < 10 µM
- % Activity: ++ (between 25% to 100%)

SMILES: O=C(Nc1cccc(S(=O)(=O)N2CCCC2)c1)c1c[nH]c2ccccc2c1=O [Compound 24, 4-oxo-N-(3-pyrrolidin-1-ylsulfonylphenyl)-1H-quinoline-3-carboxamide]
- EC50: 25 to 60 µM
- % Activity: + (<25%)

SMILES: CC(=O)Nc1cccc(-c2ccccc2NC(=O)c2c[nH]c3ccccc3c2=O)c1 [Compound 25, N-[2-(3-acetylaminophenyl)phenyl]-4-oxo-1H-quinoline-3-carboxamide]
- % Activity: ++ (between 25% to 100%)

SMILES: O=C(Nc1ccccc1N1CCCCC1)c1c[nH]c2ccccc2c1=O [Compound 26, 4-oxo-N-[2-(1-piperidyl)phenyl]-1H-quinoline-3-carboxamide]
- EC50: < 10 µM
- % Activity: ++ (between 25% to 100%)

SMILES: COCCOC(=O)NCC(C)(C)c1ccc(NC(=O)c2c[nH]c3ccccc3c2=O)cc1 [Compound 28, [2-methyl-2-[4-[(4-oxo-1H-quinolin-3-yl)carbonylamino]phenyl]-propyl]aminoformic acid 2-methoxyethyl ester]
- EC50: 10 to 25 µM
- % Activity: ++ (between 25% to 100%)

SMILES: CC(C)n1cc(C(=O)Nc2ccccc2)c(=O)c2ccccc21 [Compound 29, 1-isopropyl-4-oxo-N-phenyl-1H-quinoline-3-carboxamide]
- EC50: 10 to 25 µM
- % Activity: ++ (between 25% to 100%)

SMILES: COC(=O)Nc1cc(NC(=O)c2c[nH]c3ccccc3c2=O)ccc1C(C)C [Compound 30, [2-isopropyl-5-[(4-oxo-1H-quinolin-3-yl)carbonylamino]phenyl]aminoformic acid methyl ester]
- EC50: < 10 µM
- % Activity: ++ (between 25% to 100%)

SMILES: Cc1ccc(NC(=O)c2c[nH]c3ccccc3c2=O)cc1 [Compound 31, 4-oxo-N-(p-tolyl)-1H-quinoline-3-carboxamide]
- EC50: < 10 µM
- % Activity: ++ (between 25% to 100%)

SMILES: O=C(Nc1cc2[nH]ccc2cc1Cl)c1c[nH]c2ccccc2c1=O [Compound 32, N-(5-chloro-1H-indol-6-yl)-4-oxo-1H-quinoline-3-carboxamide]
- EC50: < 10 µM
- % Activity: ++ (between 25% to 100%)

SMILES: O=C(Nc1ccc2cc[nH]c2c1)c1c[nH]c2ccccc2c1=O [Compound 33, N-(1H-indol-6-yl)-4-oxo-1H-quinoline-3-carboxamide]
- EC50: < 10 µM
- % Activity: ++ (between 25% to 100%)
